Columns and labels:
Assay in all cases: selective drug sensitivity score (sDSS, relative to normal bone marrow) (sDSS (score)); higher = more potent and effective on the cell line relative to normal bone marrow cells
Conditions in all cases: 72 h
380 = system: 380
697 = system: 697
ALL-PO = system: ALL-PO
CCRF-HSB2 = system: CCRF-HSB2
COG-LL-394h = system: COG-LL-394h
COG-LL-402h = system: COG-LL-402h
DND-41 = system: DND-41
JURKAT = system: JURKAT
KASUMI-10 = system: KASUMI-10
KASUMI-2 = system: KASUMI-2
KASUMI-9 = system: KASUMI-9
LC4-1 = system: LC4-1
MHH-CALL-3 = system: MHH-CALL-3
NALL-1 = system: NALL-1
NALM-16 = system: NALM-16
P12-ICHIKAWA = system: P12-ICHIKAWA
PEER = system: PEER
RPMI-8402 = system: RPMI-8402
SEM cells = system: SEM cells
SUP-B15 = system: SUP-B15
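Note: ALL cell lines in 384-well plates, five doses spanning 10,000-fold, each plate scaled between vehicle and 100 µmol/L benzalkonium chloride controls, sDSS an adapted area-under-curve metric.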

Row | Structure (SMILES) | selective drug sensitivity score 380 | selective drug sensitivity score 697 | selective drug sensitivity score (ALL-PO) | selective drug sensitivity score (CCRF-HSB2) | selective drug sensitivity score (COG-LL-394h) | selective drug sensitivity score (COG-LL-402h) | selective drug sensitivity score (DND-41) | selective drug sensitivity score (JURKAT) | selective drug sensitivity score (KASUMI-10) | selective drug sensitivity score (KASUMI-2) | selective drug sensitivity score (KASUMI-9) | selective drug sensitivity score (LC4-1) | selective drug sensitivity score (MHH-CALL-3) | selective drug sensitivity score (NALL-1) | selective drug sensitivity score (NALM-16) | selective drug sensitivity score (P12-ICHIKAWA) | selective drug sensitivity score (PEER) | selective drug sensitivity score (RPMI-8402) | selective drug sensitivity score (SEM cells) | selective drug sensitivity score (SUP-B15)
1 | CCc1c(C(=O)C(N)=O)c2c(OCC(=O)O)cccc2n1Cc1ccccc1 [Varespladib] (top concentration 10000 nM) | -0.84 | -0.84 | -0.84 | 0.36 | -0.84 | 6.36 | -0.84 | -0.74 | -0.84 | -0.84 | -0.84 | -0.84 | -0.84 | -0.84 | 0.56 | -0.84 | -0.84 | -0.84 | -0.84 | -0.84
2 | O=C1NC(=O)[C@@H](c2cn3c4c(cccc24)CCC3)[C@@H]1c1c[nH]c2ccccc12 [Tivantinib] (top concentration 1000 nM) | 6.18 | 5.18 | 2.08 | 3.58 | -0.42 | 2.38 | 0.78 | 3.98 | 1.98 | 0.68 | 5.38 | 4.08 | 0.78 | 4.78 | 4.28 | 3.68 | 4.38 | 3.68 | 7.18 | 2.88
3 | CCOc1ccn(-c2ccc(F)cc2)c(=O)c1C(=O)Nc1ccc(Oc2ccnc(N)c2Cl)c(F)c1 (top concentration 2500 nM) | 0 | 0.4 | 2.7 | 3.2 | 0.8 | 0 | 0 | 0 | 2.6 | 0 | 0 | 0 | 0 | 0 | 1 | 3 | 3.9 | 0.4 | 4.9 | 3.5
4 | CCCCCCCCc1ccc(CCC(N)(CO)CO)cc1 [Fingolimod] (top concentration 10000 nM) | -1.12 | -0.22 | 2.28 | 0.48 | 1.68 | -0.92 | 1.28 | -1.12 | -0.72 | -0.82 | 0.08 | 0.88 | -3.42 | 6.18 | -0.02 | -0.92 | 1.78 | -1.12 | 0.48 | 7.48
5 | O=C(NOCCO)c1ccc2cncn2c1Nc1ccc(I)cc1F [GDC-0623] (top concentration 2500 nM) | -0.4 | -2.5 | -3.3 | 0.8 | -3.4 | -3.2 | 0.2 | -3.2 | -3.4 | 0.3 | -0.4 | -2.3 | 1.7 | -0.5 | 0.1 | -1.7 | -0.1 | -3.3 | -3.4 | -3
6 | CC(=O)O[C@H]1C(=O)[C@@]2(C)[C@H]([C@H](OC(=O)c3ccccc3)[C@]3(O)C[C@H](OC(=O)[C@H](O)[C@@H](NC(=O)c4ccccc4)c4ccccc4)C(C)=C1C3(C)C)[C@]1(OC(C)=O)CO[C@@H]1C[C@@H]2O [Paclitaxel] (top concentration 1000 nM) | 19.9 | 22.4 | 17.8 | 18.8 | 6.84 | 12.8 | 2.04 | 18.3 | 11.5 | 18.3 | 19.6 | 23 | 5.24 | 12.2 | 14.1 | 19.9 | 22.2 | 16 | 21.3 | 21.1
7 | O=C(Nc1cc(Cl)cc2c1[nH]c1cnccc12)c1cccnc1 [PS-1145] (top concentration 25000 nM) | -0.46 | 0.44 | -0.36 | 1.34 | -0.46 | -0.46 | -0.46 | -0.36 | 3.44 | -0.46 | 0.44 | -0.46 | -0.46 | 9.14 | -0.46 | -0.46 | -0.46 | -0.46 | 0.04 | -0.46
8 | O=C(O)CC1CC(c2ccccc2)=NO1 (stereo not given) [VGX-1027] (top concentration 10000 nM) | -0.04 | -0.04 | -0.04 | -0.04 | -0.04 | -0.04 | -0.04 | -0.04 | -0.04 | -0.04 | -0.04 | -0.04 | -0.04 | -0.04 | -0.04 | -0.04 | -0.04 | -0.04 | -0.04 | -0.04
9 | O=c1ncn2nc(Sc3ccc(F)cc3F)ccc2c1-c1c(Cl)cccc1Cl [Neflamapimod] (top concentration 10000 nM) | 4.7 | 2.9 | 5 | 0.5 | 1.3 | 0.1 | 0.5 | 1.7 | 0 | 0 | 3.1 | 0.9 | 0 | 2.1 | 0 | 1 | 2.3 | 2.1 | 1.5 | 0.5
10 | Cc1c2oc3c(C)ccc(C(=O)N[C@@H]4C(=O)N[C@H](C(C)C)C(=O)N5CCC[C@H]5C(=O)N(C)CC(=O)N(C)[C@@H](C(C)C)C(=O)O[C@@H]4C)c3nc-2c(C(=O)N[C@@H]2C(=O)N[C@H](C(C)C)C(=O)N3CCC[C@H]3C(=O)N(C)CC(=O)N(C)[C@@H](C(C)C)C(=O)O[C@@H]2C)c(N)c1=O [Dactinomycin] (top concentration 1000 nM) | 17.2 | 19.2 | 8.24 | 15.7 | 12.2 | 15.2 | 11 | 2.64 | 17.6 | 15 | 19.4 | 17.5 | 15.7 | 1.44 | 5.24 | 0.44 | 0.64 | 1.54 | 11.3 | 20.7
11 | COc1cc(N2CCN(C)CC2)ccc1Nc1nccc(-c2cn(C)c3cnccc23)n1 [AZ191] (top concentration 10000 nM) | -2.42 | 1.08 | 3.58 | 1.18 | -0.72 | -0.22 | 0.08 | -3.02 | 5.38 | -5.12 | 1.58 | -2.72 | -2.72 | 2.88 | -3.72 | -2.22 | -1.92 | 0.18 | 5.58 | -2.72
12 | CCCCCCCCCCCCCCCCCCOP(=O)([O-])OC1CC[N+](C)(C)CC1 [Perifosine] (top concentration 2500 nM) | -0.16 | -0.36 | 0.94 | -0.36 | -0.36 | 4.04 | -0.36 | -0.36 | -0.36 | 8.74 | -0.36 | 4.04 | -0.36 | -0.36 | -0.36 | -0.36 | -0.36 | -0.36 | -0.36 | 1.04
13 | C[C@@H]1CCN(C(=O)CC#N)C[C@@H]1N(C)c1ncnc2[nH]ccc12 [Tofacitinib] (top concentration 5000 nM) | -7.86 | -6.86 | -7.86 | -3.56 | -7.86 | -7.86 | 1.74 | -7.86 | -7.86 | -7.86 | -7.86 | -7.86 | -7.86 | -7.86 | -7.86 | -7.86 | -4.66 | -7.86 | -7.86 | -7.86
14 | CC[C@H](CO)Nc1nc(NCc2ccccc2)c2ncn(C(C)C)c2n1 [Seliciclib] (top concentration 10000 nM) | -1.04 | 1.16 | -1.04 | 0.56 | -1.04 | -1.04 | 9.26 | -0.84 | 0.86 | -1.04 | -0.44 | 1.06 | -1.04 | -0.74 | -1.04 | -0.94 | -0.24 | -0.54 | -0.04 | 3.26
15 | CC(C)C[C@H](NC(=O)[C@@H](COC(C)(C)C)NC(=O)[C@H](Cc1ccc(O)cc1)NC(=O)[C@H](CO)NC(=O)[C@H](Cc1c[nH]c2ccccc12)NC(=O)[C@H](Cc1cnc[nH]1)NC(=O)[C@@H]1CCC(=O)N1)C(=O)N[C@@H](CCCNC(=N)N)C(=O)N1CCC[C@H]1C(=O)NNC(N)=O [Goserelin] (top concentration 10000 nM) | -0.06 | -0.06 | -0.06 | 0.04 | -0.06 | -0.06 | -0.06 | -0.06 | -0.06 | -0.06 | -0.06 | -0.06 | -0.06 | -0.06 | -0.06 | -0.06 | -0.06 | -0.06 | -0.06 | -0.06
16 | C[C@H]1C[C@@H](n2c(Nc3ccc(OC(F)(F)F)cc3)nc3cc(CCC(=O)O)ccc32)CC(C)(C)C1 (top concentration 10000 nM) | -0.14 | -0.14 | 2.86 | 2.56 | -0.14 | -0.14 | -0.14 | 4.26 | -0.14 | -0.14 | 0.66 | 0.76 | -0.14 | -0.14 | -0.14 | 1.26 | 2.16 | 1.46 | 0.16 | 2.16
17 | Clc1ccc(C(c2ccccc2Cl)C(Cl)Cl)cc1 (stereo not given) [Mitotane] (top concentration 10000 nM) | -0.08 | -0.08 | -0.08 | -0.08 | -0.08 | -0.08 | -0.08 | -0.08 | -0.08 | -0.08 | -0.08 | -0.08 | -0.08 | -0.08 | -0.08 | -0.08 | -0.08 | -0.08 | -0.08 | -0.08
